Consider 27 compounds from patent US12129248B2, “Chromobox protein inhibitors and uses thereof” (Dana-Farber Cancer Institute, Inc., priority 2016, dated 2024).

For this assay, the target named is Human His6-CBX7 (Homo sapiens (Human), UniProt O95931). Description: CBX7 AlphaScreen assay (binding of CBX7 chromodomain to H3K27me3 peptide). As to conditions: for IC50: average, His6-CBX7 / biotinylated-H3K27me3, read-out: AVG CBX7 Alpha IC50. From the text:
A biochemical assay was developed based on nanoparticle AlphaScreen assay to monitor the binding of recombinant CBX chromodomain (CBX7) to a methylated peptide (H3K27me3).
The primary assay uses recombinant CBX chromodomain and synthetic, trimethylated H3 histone tail peptide. When CBX/histone tail-binding occurs, AlphaScreen beads are brought in close proximity, resulting in singlet molecular oxygen transfer and production of a luminescent signal. Assay positives inhibiting the binding interaction are therefore expected to prevent complex formation, diminishing signal intensity. The AlphaScreen technology features an anti-Stokes shift in detection: due to energy transfer between beads by singlet oxygen and internal chemical reactions within the acceptor bead, the emission wavelength is blue-shifted relative to the excitation wavelength, which is impossible in traditional fluorescent assays. The relatively long path length of 200 nm that singlet molecular oxygen can travel enables reporting on full protein complexes and not just single target binding. […] Neither the small molecules being tested nor the target protein, CBX7, need to be chemically, conformationally, or behaviorally altered by tethering them to a surface or reporter that may decrease physiological relevance and beget screening artifacts. The primary assay monitors binding of the chromodomain of CBX7 to a histone tail containing a trimethylated lysine at K27, the biologically relevant interaction through which PRC binds to chromatin to repress transcription. This is a robust proximity-based assay that utilizes AlphaScreen technology (PerkinElmer). The assay consists of His6-CBX7 bound to a Ni^++ acceptor bead and the biotinylated histone tail bound to a streptavadin donor bead. Upon CBX7/H3K27me3 binding, the steptavidin bead comes into proximity with the Ni^++ bead to luminesce upon light excitation ([…]; see below).
The protocol for the CBX7 AlphaScreen was as follows: a standard alpha buffer (50 mM HEPES, 150 mM NaCl, 0.1% w/v BSA, 0.01% w/v Tween20) at pH 8.0 and make up two stock solutions at 2× final concentration in the alpha buffer. Solution A contains Human His6-CBX7 is used with biotinylated-H3K27me3 (residues 20-34), at 100 nM and 50 nM respectively. Solution B contains 20 nM streptavidin donor beads and 20 nM nickel acceptor beads. For 384 well assay formats, 10 uL of solution A is added to each well of the assay plate and the plate is spun at 1000 rpm for 30 seconds. 100 nL of experimental compounds from stock plates are delivered by robotic pin transfer using a Janus Workstation (PerkinElmer), allowing the compounds to interact with CBX7 binding prior to assay measurement, followed by another spin and an incubation room temperature. Finally, 10 uL of solution B is added to each well, the plate is spun again and then incubated at room temperature. AlphaScreen measurements are performed on an Envision 2104 (PerkinElmer) utilizing the manufacturer's protocol that has the correct excitation and emission wavelengths, cutoff filters, delay time, etc. A crosstalk calculation is also done through the Envision software to correct for luminescence for adjacent wells while reading the plate. The signal is then normalized to DMSO control wells on the compound plate prior to creation of the IC50 curves.

Human His6-CBX7, sequence (O95931 11-69): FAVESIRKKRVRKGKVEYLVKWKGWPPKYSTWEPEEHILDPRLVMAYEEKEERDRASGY

As for `COc1ccc(CC(=O)Nc2nc(CC(=O)Nc3ccc(N4CCCC4)cc3)cs2)c(OC)c1OC` [ACV-83], the concentration for half-maximal inhibition (IC50) (usually the concentration needed to halve the response being measured) came to 23.9 µM. Take `COC(=O)Cc1cnc(NC(=O)c2ccc(CCN3CCCC3)cc2)s1` [ACV-93]: the IC50 is 440 µM. In the case of `O=C(CC1S/C(=N/N=C/c2ccc3cccnc3n2)NC1=O)Nc1ccc(N2CCCC2)cc1` (stereo not drawn) [ACV-26], the half-inhibitory concentration (IC50) amounted to 16.6 µM.

With `CN(C)CCCOc1ccc(/C=N/NC(=O)c2cc(-c3ccco3)nc3ccccc23)cc1` [ACV-06], the 50% inhibitory concentration (IC50) was 13.6 µM. Regarding `O=C(CC1S/C(=N/N=C/c2cccnc2)NC1=O)Nc1ccc(N2CCCC2)cc1` (stereo not drawn) [ACV-14 (1)], the IC50 stood at 4.41 µM.

For `O=C(Cc1cnc(NC(=O)Cc2cccnc2)s1)Nc1ccc(N2CCCC2)cc1` [ACV-48 (1)], the IC50 was determined as 403 µM. The same measure, in the same setting: with `Oc1ccc(/C=N/Nc2nc(-c3ccc(N4CCCC4)cc3)cs2)c(O)c1O` [ACV-62] the figure was 0.861 µM; with `CN(C)c1ccc(CCNC(=O)CC2SC(N/N=C/c3ccc(N4CCCC4)cc3)=NC2=O)cc1` (stereo not drawn) [ACV-76], 3.76 µM. Take `COC(=O)c1ccc(-c2ccc(/C=N/N=C3\NC(=O)C(CC(=O)Nc4ccc(N5CCCC5)cc4)S3)cc2)cc1` (stereo not drawn) [ACV-20]: the 50% inhibitory concentration (IC50) was determined as 28.6 µM. As to `O=C(Cc1cnc(NC(=O)Nc2cccnc2)s1)Nc1ccc(CN2CCCC2)cc1` [ACV-55], the IC50 is 23 µM. Take `c1cn2c(NC3CCCCC3)c(-c3ccc4[nH]ncc4c3)nc2cn1` [ACV-94]: the half-inhibitory concentration (IC50) is 123 µM.

For `O=C(CC1S/C(=N/N=C/c2ccc(C(=O)O)cc2)NC1=O)Nc1ccc(N2CCCC2)cc1` (stereo not drawn) [ACV-16], the IC50 came out at 6.79 µM.

Regarding `COc1cc(NC(=O)Nc2ncc(CC(=O)Nc3ccc(N4CCCC4)cc3)s2)cc(OC)c1OC` [ACV-50], the half-maximal inhibitory concentration (IC50) is 7.2 µM. In the case of `O=C(CC1S/C(=N/N=C/c2ccc(O)c(O)c2O)NC1=O)Nc1ccc(N2CCCC2)cc1` (stereo not drawn) [ACV-17* (P1)], the half-inhibitory concentration (IC50) came out at 2.36 µM. `CN(C)c1ccc(CC(CO)NC(=O)c2cc(-c3ccco3)nc3ccccc23)cc1` (stereo not drawn) [ACV-12, N-(1-(4-(dimethylamino)phenyl)-3-hydroxypropan-2-yl)-2-(furan-2-yl)quinoline-4-carboxamide]: the IC50 stood at 6.1 µM. `CN1CCN(CCNC(=O)CC2S/C(=N/N=C/c3ccc(O)c(O)c3O)NC2=O)CC1` (stereo not drawn) [ACV-63 (2)]: the IC50 worked out at 22.5 µM. As for `O=C(CC1S/C(=N/C(=O)c2ccccc2)NC1=O)Nc1ccc(N2CCCC2)cc1` (stereo not drawn) [ACV-30], the IC50 came out at 39 µM.

For the compound `O=C(Cc1cnc(NC(=O)Nc2cccc(C(F)(F)F)c2)s1)Nc1ccc(N2CCCC2)cc1` [ACV-51], the IC50 worked out at 24.1 µM.

Turning to `O=C(CC1S/C(=N\N=C\c2cccnc2)NC1=O)Nc1cccc(Cl)c1Cl` (stereo not drawn) [JQI-III-263-A], under “cap scan of Scaffold 3, in words (FIG. 8)”, the “activity in CBX AlphaScreen assay” value is on record as “improved activity”. As for `CN(C)c1ccc(CCNC(=O)CC2SC(N/N=C/c3ccc(O)c(O)c3O)=NC2=O)cc1` (stereo not drawn) [ACV-66], the IC50 is 11.9 µM. For the compound `CN(C)c1ccc(/C=N/N=C2\NC(=O)C(CC(=O)Nc3ccc(N4CCCC4)cc3)S2)cc1` (stereo not drawn) [ACV-21], the half-maximal inhibitory concentration (IC50) came to 3.69 µM. As to `CN1CCN(c2ccc(NC(=O)Cc3cnc(NC(=O)Cc4cccnc4)s3)cc2)CC1` [ACV-46], the IC50 was found to be 88.4 µM. For `O=C(CC1S/C(=N/N=C/c2ccc(O)c(O)c2)NC1=O)Nc1ccc(N2CCCC2)cc1` (stereo not drawn) [ACV-36 (1)], the concentration for half-maximal inhibition (IC50) came to 10 µM. The same measure, in the same setting: with `O=C(Cc1cccnc1)/N=C1\NC(=O)C(CC(=O)Nc2ccc(N3CCCC3)cc2)S1` (stereo not drawn) [ACV-33] the figure was 56.2 µM; with `COc1ccc(CC(=O)Nc2ncc(CC(=O)NCCN3CCN(C)CC3)s2)c(OC)c1OC` [ACV-82], 50.8 µM. Still for that read-out and setting: the value for `O=C(c1ccc(-c2csc(NCCc3cccnc3)n2)cc1)N1CCC(N2CCCC2)CC1` [ACV-97] was 81.7 µM. As to `CN1CCN(CCNC(=O)c2ccc(-c3csc(NCCc4cccnc4)n3)cc2)CC1` [ACV-98], the half-inhibitory concentration (IC50) was determined as 121 µM.
